Measurements taken from patent publication US11572350B1, “Benzothia(di)azepine compounds and their use as bile acid modulators” (Albireo AB, priority 2020, dated 2023).

Experiments:
human LBAT = biological target: T1, human LBAT (Homo sapiens, UniProt Q14973); assay: LBAT (h/m) assay: 3H-taurocholic acid uptake in human LBAT-overexpressing cells; assay type: cell-based; conditions: 0.3 μM 3H-taurocholic acid and 7.5 μM cold taurocholic acid, 20 minutes, read-out: hLBAT IC50
T1 construct: expressed in transfected cells; kept under Geneticin selection
T1 sequence (Q14973 1-349): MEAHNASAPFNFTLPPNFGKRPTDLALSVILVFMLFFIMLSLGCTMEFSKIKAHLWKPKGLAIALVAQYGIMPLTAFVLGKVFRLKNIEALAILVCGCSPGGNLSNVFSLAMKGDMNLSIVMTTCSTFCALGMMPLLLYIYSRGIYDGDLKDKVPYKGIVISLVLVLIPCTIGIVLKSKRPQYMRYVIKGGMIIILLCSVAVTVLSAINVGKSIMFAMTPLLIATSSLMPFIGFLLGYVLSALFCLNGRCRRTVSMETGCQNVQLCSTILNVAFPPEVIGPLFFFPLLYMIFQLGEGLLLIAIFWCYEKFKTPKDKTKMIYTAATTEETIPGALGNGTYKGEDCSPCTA
Method: LBAT (h/m) Assay Protocol
20,000 cells (Human or Mouse LBAT-overexpressing cells) were seeded in 96-wells plate (Corning CLS3809) in 100 μL MEM-alpha medium (Gibco 12571-063) supplemented with 10% FBS (Gibco 10438026) containing Geneticin (Gibco 10131-027) (1 mg/mL) and incubated at 37° C. in 5% CO2 for 24 hours. After incubation, media was decanted from the wells and cells were washed two times with 300 μL of basal MEM-alpha medium (FBS-free). After decanting basal MEM-alpha medium each time, plates were tapped against paper towel to ensure maximum removal of residual media. For human LBAT, incubation mix was prepared by adding test inhibitor dilutions (3-fold serial dilution in DMSO (Sigma D2650), 10 points) in MEM-alpha (without FBS) containing 0.3 μM 3H-taurocholic acid (ARC ART-1368) and 7.5 μM cold taurocholic acid (Sigma T4009) (maintaining 0.2% final DMSO concentration). For mouse LBAT, incubation mix was prepared by adding test inhibitor dilutions (3-fold serial dilution in DMSO, 10 points) in MEM-alpha (without FBS) containing 0.3 μM 3H-taurocholic acid and 25 μM cold taurocholic acid maintaining 0.2% final DMSO concentration). 50 μL of incubation mix containing test inhibitors was then added to the wells (in duplicate) and the plates were incubated for 20 minutes in a CO2 incubator at 37° C. After incubation, the reaction was stopped by keeping the plates on ice water mix for 2-3 minutes and then the incubation mix was aspirated completely from the wells. The wells were washed two times with 250 μL of chilled unlabelled 1 mM taurocholic acid dissolved in HEPES (Gibco 15630080)-buffered (10 mM) HBSS (Gibco 14175079) (pH 7.4). The plates were tapped against a paper towel after every wash to ensure maximum removal of blocking buffer.
100 μL of MicroScint-20 (PerkinElmer 6013621) was added to the wells and kept overnight at room temperature before reading the plates in TopCount NXT™ Microplate Scintillation and Luminescence Counter from PerkinElmer under 3H Test protocol (set at 120 seconds reading time per well, with normal plate orientation).
(§1) Preparation of Test Compound Dilutions
(§2) All test compounds were provided in powder form at room temperature. 10 mM DMSO stocks of the test compounds were prepared, aliquoted and stored at −20° C. From the 10 mM DMSO stock of the compounds, a 3-fold serial dilution in DMSO was prepared to get a total of 10 dilutions of the test compounds. 0.5 μL of this dilution in DMSO was added to 250 μL of FBS-free basal media containing 3H-taurocholic acid and cold taurocholic acid to prepare the incubation mixture.

human IBAT = biological target: T2, human IBAT (Homo sapiens, UniProt Q12908); assay: IBAT (h/m) assay: 3H-taurocholic acid uptake in human IBAT-overexpressing cells; assay type: cell-based; conditions: 0.25 μM 3H-taurocholic acid and 5 μM cold taurocholic acid, 20 minutes, highest test concentration 10 μM, read-out: hIBAT IC50
T2 construct: expressed in transfected cells; kept under Puromycin selection
T2 sequence (Q12908 1-348): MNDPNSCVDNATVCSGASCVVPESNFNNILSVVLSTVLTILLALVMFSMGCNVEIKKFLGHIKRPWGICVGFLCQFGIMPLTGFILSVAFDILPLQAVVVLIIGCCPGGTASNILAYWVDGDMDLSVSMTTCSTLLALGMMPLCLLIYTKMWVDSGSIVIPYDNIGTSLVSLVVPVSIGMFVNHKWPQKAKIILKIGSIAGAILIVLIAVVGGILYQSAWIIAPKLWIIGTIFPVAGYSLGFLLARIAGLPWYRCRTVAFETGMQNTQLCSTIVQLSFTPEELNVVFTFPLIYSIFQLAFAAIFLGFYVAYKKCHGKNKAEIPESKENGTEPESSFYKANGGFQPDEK
Method: IBAT (h/m) Assay Protocol
10,000 cells (Human or Mouse IBAT-overexpressing cells) were seeded in 96-wells plate (Corning CLS3809) in 200 μL MEM-alpha medium (Gibco 12571-063) supplemented with 10% FBS (Gibco 10438026) containing Puromycin (Gibco A1113803) (10 μg/mL) and incubated at 37° C. in 5% CO2 for 48 hours. After incubation, media was decanted from the wells and cells were washed two times with 300 μL of basal MEM-alpha medium (FBS-free). After decanting basal MEM-alpha medium each time, plates were tapped against paper towel to ensure maximum removal of residual media. Test inhibitor dilutions (highest test concentration being 10 μM, 3-fold serial dilution, 10 points) prepared in DMSO (Sigma D2650) were added in incubation mix (maintaining 0.2% final DMSO concentration) containing 0.25 μM 3H-taurocholic acid (ARC ART-1368) and 5 μM of cold taurocholic acid (Sigma T4009). 50 μL of incubation mix containing test inhibitors was then added to the wells (in duplicate) and the plates were incubated for 20 minutes in a CO2 incubator at 37° C. After incubation, the reaction was stopped by keeping the plates on ice water mix for 2-3 minutes and then the incubation mix was aspirated completely from the wells. The wells were washed two times with 250 μL of chilled unlabelled 1 mM taurocholic acid dissolved in HEPES (Gibco 15630080)-buffered (10 mM) HBSS (Gibco 14175079) (pH 7.4). The plates were tapped against a paper towel after every wash to ensure maximum removal of blocking buffer.
100 μL of MicroScint-20 (PerkinElmer 6013621) was added to the wells and kept overnight at room temperature before reading the plates in TopCount NXT™ Microplate Scintillation and Luminescence Counter from PerkinElmer under 3H Test protocol (set at 120 seconds reading time per well).
as §1, §2

[1] = Bidirectional permeability assay (Caco-2 cells); assay type: in vitro ADME; conditions: human, FaSSIF donor buffer, 120 minutes at 37° C.
Source text: Bidirectional Permeability Assay (Caco-2 Cells)
HepaRG-Based Assay Protocol

IC50 (human LBAT)	IC50 (human IBAT)	Papp A→B at 120 min, 10 µM ([1]; Caco-2, pH 7.4, absorptive direction (A2B))	Papp B→A at 120 min, 10 µM ([1]; Caco-2, pH 7.4, secretory direction (B2A))	SMILES
21 nM	> 10000 nM			CCCCC1CN(c2ccccc2)c2cc(SCC)c(O/C=C(\F)C(=O)O)cc2S(=O)(=O)C1 (single isomer, unassigned) [Example 14, (Z)-3-((3-butyl-7-(ethylthio)-1,1-dioxido-5-phenyl-2,3,4,5-tetrahydro-1,5-benzothiazepin-8-yl)oxy)-2-fluoroacrylic acid]
0.9 nM	519 nM			CCCCC1CN(c2ccc(F)cc2)c2cc(SC)c(O/C=C(\F)C(=O)O)cc2S(=O)(=O)C1 (single isomer, unassigned) [Example 11, (Z)-3-((3-butyl-5-(4-fluorophenyl)-7-(methylthio)-1,1-dioxido-2,3,4,5-tetrahydro-1,5-benzothiazepin-8-yl)oxy)-2-fluoroacrylic acid]
> 333 nM	> 10000 nM			CCCCC1CN(c2ccc(F)cc2)c2cc(SCC)c(O/C=C/C(=O)O)cc2S(=O)(=O)C1 (single isomer, unassigned) [Example 8, (E)-3-((3-butyl-7-(ethylthio)-5-(4-fluorophenyl)-1,1-dioxido-2,3,4,5-tetrahydro-1,5-benzothiazepin-8-yl)oxy)acrylic acid]
278 nM	> 10000 nM			CCCCC1CN(c2ccc(F)cc2)c2cc(SC)c(O/C=C/C(=O)O)cc2S(=O)(=O)N1 (single isomer, unassigned) [Example 2, (E)-3-((3-butyl-5-(4-fluorophenyl)-7-(methylthio)-1,1-dioxido-2,3,4,5-tetrahydro-1,2,5-benzothiadiazepin-8-yl)oxy)acrylic acid]
15 nM	1420 nM			CCCCC1CN(c2ccc(F)cc2)c2cc(SC)c(O/C=C(\F)C(=O)O)cc2S(=O)(=O)C1 (single isomer, unassigned) [Example 12, (Z)-3-((3-butyl-5-(4-fluorophenyl)-7-(methylthio)-1,1-dioxido-2,3,4,5-tetrahydro-1,5-benzothiazepin-8-yl)oxy)-2-fluoroacrylic acid]
3.4 nM	8810 nM			CCCCC1CN(c2ccccc2)c2cc(SCC)c(O/C=C/C(=O)O)cc2S(=O)(=O)N1 (single isomer, unassigned) [Example 5, (E)-3-((3-butyl-7-(ethylthio)-1,1-dioxido-5-phenyl-2,3,4,5-tetrahydro-1,2,5-benzothiadiazepin-8-yl)oxy)acrylic acid]
2 nM		15.5 ×10⁻⁶ cm/s	18.6 ×10⁻⁶ cm/s	CCCCC1CN(c2ccc(F)cc2)c2cc(SCC)c(O/C=C/C(=O)O)cc2S(=O)(=O)C1 (single isomer, unassigned) [Example 9, (E)-3-((3-butyl-7-(ethylthio)-5-(4-fluorophenyl)-1,1-dioxido-2,3,4,5-tetrahydro-1,5-benzothiazepin-8-yl)oxy)acrylic acid]
3.4 nM	> 10000 nM			CCCCC1CN(c2ccccc2)c2cc(SCC)c(O/C=C/C(=O)O)cc2S(=O)(=O)N1 (racemic) [Example 4, (E)-3-((3-Butyl-7-(ethylthio)-1,1-dioxido-5-phenyl-2,3,4,5-tetrahydro-1,2,5-benzothiadiazepin-8-yl)oxy)acrylic acid]
1.3 nM	1790 nM			CCCCC1CN(c2ccccc2)c2cc(SCC)c(O/C=C(\F)C(=O)O)cc2S(=O)(=O)N1C (racemic) [Example 24, (Z)-3-((3-butyl-7-(ethylthio)-2-methyl-1,1-dioxido-5-phenyl-2,3,4,5-tetrahydro-1,2,5-benzothiadiazepin-8-yl)oxy)-2-fluoroacrylic acid]
13 nM	481 nM			CCCCC1CN(c2ccc(F)cc2)c2cc(SC)c(O/C=C(\F)C(=O)O)cc2S(=O)(=O)N1 (racemic) [Example 27, (Z)-3-((3-butyl-5-(4-fluorophenyl)-7-(methylthio)-1,1-dioxido-2,3,4,5-tetrahydro-1,2,5-benzothiadiazepin-8-yl)oxy)-2-fluoroacrylic acid]
5.5 nM	> 3330 nM			CCCCC1CN(c2ccc(F)cc2)c2cc(SCC)c(O/C=C(\F)C(=O)O)cc2S(=O)(=O)C1 (single isomer, unassigned) [Example 17, (Z)-3-((3-butyl-7-(ethylthio)-5-(4-fluorophenyl)-1,1-dioxido-2,3,4,5-tetrahydro-1,5-benzothiazepin-8-yl)oxy)-2-fluoroacrylic acid]
131 nM	1130 nM			CCCCC1CN(c2ccccc2)c2cc(SCC)c(O/C=C(\F)C(=O)O)cc2S(=O)(=O)N1C (single isomer, unassigned) [Example 26, (Z)-3-((3-butyl-7-(ethylthio)-2-methyl-1,1-dioxido-5-phenyl-2,3,4,5-tetrahydro-1,2,5-benzothiadiazepin-8-yl)oxy)-2-fluoroacrylic acid]
70 nM	> 3330 nM			CCCCC1CN(c2ccc(F)cc2)c2cc(SCC)c(O/C=C(\F)C(=O)O)cc2S(=O)(=O)N1C (single isomer, unassigned) [Example 23, (Z)-3-((3-butyl-7-(ethylthio)-5-(4-fluorophenyl)-2-methyl-1,1-dioxido-2,3,4,5-tetrahydro-1,2,5-benzothiadiazepin-8-yl)oxy)-2-fluoroacrylic acid]
10.1 nM	> 3330 nM			CCCCC1CN(c2ccc(F)cc2)c2cc(SC)c(O/C=C(\F)C(=O)O)cc2S(=O)(=O)N1C (single isomer, unassigned) [Example 21, (Z)-3-((3-butyl-5-(4-fluorophenyl)-2-methyl-7-(methylthio)-1,1-dioxido-2,3,4,5-tetrahydro-1,2,5-benzothiadiazepin-8-yl)oxy)-2-fluoroacrylic acid]
